Reference: patent publication US20250304576A1 (Cancer Research Technology Limited, priority 2022, published 2025)

How the values were obtained:
Recombinant IKKβ = biological target: T1, Recombinant IKKβ (Homo sapiens, UniProt O14920); test: DELFIA IKKβ kinase assay (apparent Ki, Cheng-Prusoff); assay type: biochemical
T1 construct: purchased Millipore, Dundee, UK
T1 sequence (O14920 1-756): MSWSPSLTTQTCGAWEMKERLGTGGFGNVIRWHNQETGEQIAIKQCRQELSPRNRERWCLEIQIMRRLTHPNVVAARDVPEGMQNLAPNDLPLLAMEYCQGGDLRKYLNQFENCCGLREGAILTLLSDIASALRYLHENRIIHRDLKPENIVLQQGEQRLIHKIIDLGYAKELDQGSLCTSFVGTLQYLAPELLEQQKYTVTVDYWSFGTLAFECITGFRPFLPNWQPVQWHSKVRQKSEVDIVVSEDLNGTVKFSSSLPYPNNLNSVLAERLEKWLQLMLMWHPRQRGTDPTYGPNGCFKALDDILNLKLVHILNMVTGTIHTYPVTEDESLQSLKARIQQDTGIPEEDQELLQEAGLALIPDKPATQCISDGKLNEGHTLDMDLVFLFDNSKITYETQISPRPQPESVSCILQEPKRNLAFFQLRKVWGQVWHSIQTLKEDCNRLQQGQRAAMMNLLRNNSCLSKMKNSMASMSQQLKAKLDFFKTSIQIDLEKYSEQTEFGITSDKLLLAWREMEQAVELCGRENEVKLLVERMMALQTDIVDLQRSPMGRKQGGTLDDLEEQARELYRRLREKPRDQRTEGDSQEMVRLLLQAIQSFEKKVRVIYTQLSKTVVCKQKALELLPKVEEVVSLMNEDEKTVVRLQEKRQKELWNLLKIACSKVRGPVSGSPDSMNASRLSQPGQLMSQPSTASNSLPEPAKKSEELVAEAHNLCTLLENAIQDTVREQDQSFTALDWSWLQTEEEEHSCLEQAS
Method in brief: (§1)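 Recombinant IKKα or IKKβ (37 nM) with 0.375 μM biotinylated IκB-α (Ser32) peptide and 40 μM ATP in 40 mM Tris-HCl pH 7.5, 20 mM MgCl2, 60 min at 30° C. Phospho-substrate captured on streptavidin and detected by anti-phospho-IκB-α plus europium anti-mouse IgG time-resolved fluorescence; apparent Ki via Cheng-Prusoff.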

Recombinant IKKα = biological target: T2, Recombinant IKKα (Homo sapiens, UniProt O15111); test: DELFIA IKKα kinase assay (apparent Ki, Cheng-Prusoff); assay type: biochemical
T2 construct: purchased Millipore, Dundee, UK
T2 sequence (O15111 1-745): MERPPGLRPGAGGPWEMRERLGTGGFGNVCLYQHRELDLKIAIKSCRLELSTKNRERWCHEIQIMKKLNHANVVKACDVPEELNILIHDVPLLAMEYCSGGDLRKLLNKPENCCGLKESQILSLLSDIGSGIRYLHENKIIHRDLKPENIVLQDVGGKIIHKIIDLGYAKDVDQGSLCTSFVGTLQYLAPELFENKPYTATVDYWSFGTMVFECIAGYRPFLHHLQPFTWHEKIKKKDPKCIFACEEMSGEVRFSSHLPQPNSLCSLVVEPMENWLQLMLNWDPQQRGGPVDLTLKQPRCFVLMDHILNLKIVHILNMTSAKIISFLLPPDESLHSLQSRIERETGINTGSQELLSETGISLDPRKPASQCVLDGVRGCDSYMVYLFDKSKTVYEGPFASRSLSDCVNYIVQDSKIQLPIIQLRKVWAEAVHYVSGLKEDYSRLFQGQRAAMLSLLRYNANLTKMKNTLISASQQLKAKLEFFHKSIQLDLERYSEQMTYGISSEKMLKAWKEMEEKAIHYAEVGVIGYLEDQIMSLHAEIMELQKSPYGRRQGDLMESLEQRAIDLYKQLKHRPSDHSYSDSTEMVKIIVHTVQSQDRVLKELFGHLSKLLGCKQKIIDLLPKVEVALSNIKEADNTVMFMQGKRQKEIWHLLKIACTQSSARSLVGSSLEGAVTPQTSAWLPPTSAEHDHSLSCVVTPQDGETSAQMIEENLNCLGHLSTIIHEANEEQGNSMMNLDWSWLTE
Method in brief: as §1

[1] = non-italicised figure: DELFIA assay
[2] = DELFIA assay (first line of an example)

| SMILES | Ki (Recombinant IKKβ; [1]) [nM] | Ki (Recombinant IKKα; [1]) [nM] | Ki (Recombinant IKKβ; [2]) [nM] | Ki (Recombinant IKKα; [2]) [nM] |
| --- | --- | --- | --- | --- |
| CC(C)CC(=O)Nc1cc(-c2cc(C#CC(C)(C)C)c3[nH]nc(N)c3c2)ccn1 [Example 171, N-(4-(3-Amino-7-(3,3-dimethylbut-1-yn-1-yl)-1H-indazol-5-yl)pyridine-2-yl)-3-methylbutanamide] | 5680 | 122 | – | – |
| CC(C)(C)C#Cc1cc(-c2ccnc(NC(=O)C3CCC3)c2)cc2c(N)n[nH]c12 [Example 172, N-(4-(3-Amino-7-(3,3-dimethylbut-1-yn-1-yl)-1H-indazol-5-yl)pyridin-2-yl)cyclobutanecarboxamide] | 3330 | 89 | – | – |
| CC(C)(C)C#Cc1cc(-c2ccnc(NC(=O)C3CCCC3)c2)cc2c(N)n[nH]c12 [Example 173, N-(4-(3-Amino-7-(3,3-dimethylbut-1-yn-1-yl)-1H-indazol-5-yl)pyridin-2-yl)cyclopentanecarboxamide] | 23800 | 298 | – | – |
| CC(C)(C)C#Cc1cc(-c2ccnc(NC(=O)CO)c2)cc2c(N)n[nH]c12 [Example 174, N-(4-(3-Amino-7-(3,3-dimethylbut-1-yn-1-yl)-1H-indazol-5-yl)pyridin-2-yl)-2-hydroxyacetamide] | 611 | 20 | – | – |
| COCC(=O)Nc1cc(-c2cc(C#CC(C)(C)C)c3[nH]nc(N)c3c2)ccn1 [Example 175, N-(4-(3-Amino-7-(3,3-dimethylbut-1-yn-1-yl)-1H-indazol-5-yl)pyridin-2-yl)-2-methoxyacetamide] | 1110 | 24 | – | – |
| COC(=O)Nc1cc(-c2cc(C#CC3CC3)c3[nH]nc(N)c3c2)ccn1 [Example 179, Methyl (4-(3-amino-7-(cyclopropylethynyl)-1H-indazol-5yl)-pyridin-2-yl)carbamate] | 962 | 10 | – | – |
| COC(=O)Nc1cc(-c2cc(C#CC(C)(C)O)c3[nH]nc(N)c3c2)ccn1 [Example 180, Methyl (4-(3-amino-7-(3-hydroxy-3-methylbut-1-yn-1-yl)-1H-indazol-5-yl)pyridin-2-yl)carbamate] | 826 | 5 | – | – |
| COC(=O)Nc1cc(-c2cc(C#CC(C)(C)N)c3[nH]nc(N)c3c2)ccn1 [Example 181, Methyl (4-(3-amino-7-(3-amino-3-methylbut-1-yn-1-yl)-1H-indazol-5-yl)pyridin-2-yl)carbamate1] | 515 | 20 | – | – |
| COC(=O)Nc1cc(-c2cc(C#CC(C)(C)OC)c3[nH]nc(N)c3c2)ccn1 [Example 182, Methyl (4-(3-amino-7-(3-methoxy-3-methylbut-1-yn-1-yl)-1H-indazol-5-yl)pyridin-2-yl)carbamate] | 363 | 34 | – | – |
| COC(=O)Nc1cc(-c2cc(C#CCN3CCOCC3)c3[nH]nc(N)c3c2)ccn1 [Example 183, Methyl (4-(3-amino-7-(3-morpholinoprop-1-yn-1-yl)-1H-indazol-5-yl)pyridin-2-yl)carbamate] | 721 | 47 | – | – |
| CNC(=O)Nc1cc(-c2cc(C#CC(C)(C)C)c3[nH]nc(N)c3c2)ccn1 [Example 186, 1-(4-(3-Amino-7-(3,3-dimethylbut-1-yn-1-yl)-1H-indazol-5-yl)pyridin-2-yl)-3-methylurea] | 3490 | 34 | – | – |
| CCNC(=O)Nc1cc(-c2cc(C#CC(C)(C)C)c3[nH]nc(N)c3c2)ccn1 [Example 187, 1-(4-(3-Amino-7-(3,3-dimethylbut-1-yn-1-yl)-1H-indazol-5-yl)pyridin-2-yl)-3-ethylurea] | 8100 | 438 | – | – |
| CC(C)(C)C#Cc1cc(-c2ccnc(NC(=O)Nc3ccccc3)c2)cc2c(N)n[nH]c12 [Example 189, 1-(4-(3-Amino-7-(3,3-dimethylbut-1-yn-1-yl)-1H-indazol-5-yl)pyridine-2-yl)-3-phenylurea] | – | – | 19300 | 113 |
| COC(=O)Nc1cc(-c2cc(C#CC(C)(C)C)c3[nH]nc(N)c3c2)ccn1 [Example 190, Methyl (4-(3-amino-7-(3,3-dimethylbut-1-yn-1-yl)-1H-indazol-5-yl)pyridin-2-yl)carbamate] | – | – | 1170 | 12 |
| CCOC(=O)Nc1cc(-c2cc(C#CC(C)(C)C)c3[nH]nc(N)c3c2)ccn1 [Example 191, Ethyl (4-(3-amino-7-(3,3-dimethylbut-1-yn-1-yl)-1H-indazol-5-yl)pyridin-2-yl)carbamate] | – | – | 1590 | 20 |
| CC(C)(C)C#Cc1cc(-c2ccnc(NS(C)(=O)=O)c2)cc2c(N)n[nH]c12 [Example 194, N-(4-(3-amino-7-(3,3-dimethylbut-1-yn-1-yl)-1H-indazol-5-yl)pyridin-2-yl)methanesulfonamide] | – | – | 4900 | 373 |
| CC(=O)Nc1cc(-c2cc(-c3ccncc3)c3[nH]nc(N)c3c2)ccn1 [Example 197, N-(4-(3-Amino-7-(pyridin-4-yl)-1H-indazol-5-yl)pyridin-2-yl)acetamide] | – | – | 70 | 25 |
| Nc1n[nH]c2c(-c3ccoc3)cc(-c3ccnc4[nH]ccc34)cc12 [Example 199, 7-(Furan-3-yl)-5-(1H-pyrrolo[2,3-b]pyridin-4-yl)-1H-indazol-3-amine] | – | – | 45 | 6 |
| Nc1n[nH]c2c(C#CCO)cc(-c3ccnc4[nH]ccc34)cc12 [Example 205, 3-(3-Amino-5-(1H-pyrrolo[2,3-b]pyridin-4-yl)-1H-indazol-7-yl)prop-2-yn-1-ol] | – | – | 3100 | 366 |
| Nc1n[nH]c2c(C#CC3(O)CCCC3)cc(-c3ccnc4[nH]ccc34)cc12 [Example 207, 1-((3-Amino-5-(1H-pyrrolo[2,3-b]pyridin-4-yl)-1H-indazol-7-yl)ethynyl)cyclopentan-1-ol] | – | – | 1470 | 82 |
| Nc1n[nH]c2c(C#CC3(O)CCCCC3)cc(-c3ccnc4[nH]ccc34)cc12 [Example 208, 1-((3-Amino-5-(1H-pyrrolo[2,3-b]pyridin-4-yl)-1H-indazol-7-yl)ethynyl)cyclohexan-1-ol] | – | – | 528 | 76 |
| Nc1n[nH]c2c(C#CC3(O)CCCCCC3)cc(-c3ccnc4[nH]ccc34)cc12 [Example 209, 1-((3-Amino-5-(1H-pyrrolo[2,3-b]pyridin-4-yl)-1H-indazol-7-yl)ethynyl)cycloheptan-1-ol] | – | – | 2330 | 153 |
| Nc1n[nH]c2c(C#CCCN3CCCCC3)cc(-c3ccnc4[nH]ccc34)cc12 [Example 211, 7-(4-(Piperidin-1-yl)but-1-yn-1-yl)-5-(1H-pyrrolo[2,3-b]pyridin-4-yl)-1H-indazol-3-amine] | – | – | 356 | 19 |
| Nc1n[nH]c2c(C#CCCCCN3CCCCC3)cc(-c3ccnc4[nH]ccc34)cc12 [Example 213, 7-(6-(Piperidin-1-yl)hex-1-yn-1-yl)-5-(1H-pyrrolo[2,3-b]pyridin-4-yl)-1H-indazol-3-amine] | – | – | 2510 | 40 |
| Nc1n[nH]c2c(C#CCCCC(=O)O)cc(-c3ccnc4[nH]ccc34)cc12 [Example 214, 6-(3-Amino-5-(1H-pyrrolo[2,3-b]pyridin-4-yl)-1H-indazol-7-yl)hex-5-ynoic acid] | – | – | 268 | 21 |
| Nc1n[nH]c2c(C#CCCCCC(=O)O)cc(-c3ccnc4[nH]ccc34)cc12 [Example 215, 7-(3-Amino-5-(1H-pyrrolo[2,3-b]pyridin-4-yl)-1H-indazol-7-yl)hept-6-ynoic acid] | – | – | 256 | 38 |
| Nc1n[nH]c2c(C#CCCOc3ccccc3)cc(-c3ccnc4[nH]ccc34)cc12 [Example 216, 7-(4-Phenoxybut-1-yn-1-yl)-5-(1H-pyrrolo[2,3-b]pyridin-4-yl)-1H-indazol-3-amine] | – | – | 81 | 16 |
